Target: T1, MOR (μ opioid receptor) (Homo sapiens, UniProt P35372)
T1 construct: expressed in transfected cells; host or cells: HEK293
Assay: MOR radioligand binding ([3H]-DAMGO, HEK293 cell homogenates)
Details: Percent inhibition at 10,000 nM; [3H]-DAMGO
Experimental: (§1) Radioligand binding assays. Detailed protocols for the primary and secondary radioligand binding assays can be found in the National Institute of Mental Health's Psychoactive Drug Screening Program (NIMH PDSP) Assay Protocol Book (Roth, 2018). Briefly, primary and secondary radioligand binding assays are carried out in a final of volume of 125 μL per well in appropriate binding buffer. […] Total binding and nonspecific binding are determined in the absence and presence of 10 μM of appropriate reference compound (Naltrindole DOR, Salvinorin A KOR and DAMGO MOR). In brief, plates are usually incubated at room temperature and in the dark for 90 min. Reactions are stopped by vacuum filtration onto 0.3% polyethyleneimine (PEI) soaked 96-well filter mats using a 96-well Filtermate harvester, followed by three washes with cold PBS buffer. Scintillation cocktail is then melted onto the microwave-dried filters on a hot plate and radioactivity counted in a Microbeta counter. The data (n=6) were analyzed by nonlinear regression.
(§2) Ligand affinities were determined for KOR (κ opioid receptor), DOR (δ opioid receptor), and MOR (μ opioid receptor) using radioligand binding assays at a screening concentration of 10,000 nM. For these assays, cell homogenates from HEK293 cells that overexpressed KOR, MOR, and DOR were used in combination with [^3H]-U69593, [^3H]-DAMGO, and [^3H]-DADLE, respectively Compounds that exceeded more than 50% radioligand displacement were investigated further in concentration-dependent experiments to determine Ki values. Gamma aminobutyric acid type A receptor (GABAAR) binding was determined with rat brain homogenate and ^3H-flunitrazepam. Flunitrazepam binds GABAAR subtypes that consists of two α and two β subunits and one γ or δ subunit. Strong affinities to α1-3,5,6β1-3γ1-y/δ GABAARS have been reported for flunitrazepam. The […] GABAAR subtype expression in the brain includes 43% α1β2γ2, 15% α2β3γ2+8% α2βγ1, 10% α3β3γ2, 6% α4βγ/δ, 4% α5β3γ2, and 4% α6β2γ2/δ. Therefore, compounds with high affinity toward the synaptic benzodiazepine-sensitive receptors (BZR) predominately bind α1-3β2-3γ1-2 GABAARs. Alternatively, compounds with weak BZR binding might be selective for α4-6βγ/δ GABAARs.
(§3) Psychoactive Drug Screening Program. Detailed protocols for the primary and secondary radioligand binding assays can be found in the National Institute of Mental Health's Psychoactive Drug Screening Program (NIMH PDSP) Assay Protocol Book. Briefly, primary and secondary radioligand binding assays are carried out in a final of volume of 125 μL per well in appropriate binding buffer. The radioactive ligand concentration is close to the Kd. Total binding and nonspecific binding are determined in the absence and presence of 10 μM of appropriate reference compound, respectively. In brief, plates are usually incubated at room temperature and in the dark for 90 min. Reactions are stopped by vacuum filtration onto 0.3% polyethyleneimine (PEI) soaked 96-well filter mats using a 96-well Filtermate harvester, followed by three washes with cold PBS buffer. Scintillation cocktail is then melted onto the microwave-dried filters on a hot plate and radioactivity counted in a Microbeta counter. The data (n=6) were analyzed by nonlinear regression.

T1 sequence (P35372 whole entry, species assumed): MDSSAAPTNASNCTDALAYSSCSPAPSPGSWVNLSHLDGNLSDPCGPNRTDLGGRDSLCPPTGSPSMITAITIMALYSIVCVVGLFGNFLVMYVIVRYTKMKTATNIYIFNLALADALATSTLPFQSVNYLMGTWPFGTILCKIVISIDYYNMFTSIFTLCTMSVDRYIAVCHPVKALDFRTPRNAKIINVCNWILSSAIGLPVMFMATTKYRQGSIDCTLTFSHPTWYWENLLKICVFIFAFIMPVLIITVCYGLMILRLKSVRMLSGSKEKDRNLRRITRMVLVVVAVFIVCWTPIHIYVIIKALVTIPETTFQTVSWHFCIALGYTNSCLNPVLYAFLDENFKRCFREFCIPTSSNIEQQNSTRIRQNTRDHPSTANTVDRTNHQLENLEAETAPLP

Row | Compound | inhibition at 10 µM | MOR %
1 | C#Cc1ccc2c(c1)C(c1ccccc1F)=N[C@H](C)c1c(C(=O)N(C)C)ncn1-2 [GL-II-73] | 6% | 
2 | C#Cc1ccc2c(c1)C(c1ccccc1F)=N[C@H](C)c1c(C(=O)NCC)ncn1-2 [GL-II-74] | 10% | 
3 | C#Cc1ccc2c(c1)C(c1ccccc1F)=N[C@H](C)c1c(C(=O)NC3CC3)ncn1-2 [GL-II-75] | 0% | 
4 | C#Cc1ccc2c(c1)C(c1ccccc1F)=N[C@H](C)c1c(C(=O)N3CCCC3)ncn1-2 [GL-II-76] | 0% | 
5 | C[C@H]1N=C(c2ccccc2F)c2cc(Br)ccc2-n2cnc(C(=O)O)c21 [GL-II-93] | 0% | 
6 | Brc1ccc2c(c1)C(c1ccccc1)=NCc1c(-c3cnco3)ncn1-2 [KRM-II-73] | 11% | 
7 | Brc1ccc2c(c1)C(c1ccccn1)=NCc1c(-c3cnco3)ncn1-2 [KRM-II-97] | 18% | 
8 | Cc1ncoc1-c1ncn2c1CN=C(c1ccccc1F)c1cc(Br)ccc1-2 [KRM-III-59] |  | 0%
9 | C#Cc1ccc2c(c1)C(c1ccccc1F)=NCc1c(-c3ocnc3C)ncn1-2 [KRM-III-65] | 0% | 
10 | Cc1ncoc1-c1ncn2c1CN=C(c1ccccc1)c1cc(Br)ccc1-2 [KRM-III-66] | 12% | 
11 | C#Cc1ccc2c(c1)C(c1ccccn1)=NCc1c(-c3cnco3)ncn1-2 [KRM-III-67] | 30% | 

Test system: BZR (benzodiazepine site of GABAAR)
Assay: GABAAR/BZR binding, rat brain homogenate with 3H-flunitrazepam
Details: Percent inhibition at 10,000 nM; rat brain homogenate, 3H-flunitrazepam
Experimental: as §2, §3

Row | Compound | BZR %
12 | C#Cc1ccc2c(c1)C(c1ccccc1F)=N[C@H](C)c1c(C(=O)N(C)C)ncn1-2 [GL-II-73] | 75%
13 | C#Cc1ccc2c(c1)C(c1ccccc1F)=N[C@H](C)c1c(C(=O)NCC)ncn1-2 [GL-II-74] | 84%
14 | C#Cc1ccc2c(c1)C(c1ccccc1F)=N[C@H](C)c1c(C(=O)NC3CC3)ncn1-2 [GL-II-75] | 85%
15 | C#Cc1ccc2c(c1)C(c1ccccc1F)=N[C@H](C)c1c(C(=O)N3CCCC3)ncn1-2 [GL-II-76] | 43%
16 | C[C@H]1N=C(c2ccccc2F)c2cc(Br)ccc2-n2cnc(C(=O)O)c21 [GL-II-93] | 73%
17 | Brc1ccc2c(c1)C(c1ccccc1)=NCc1c(-c3cnco3)ncn1-2 [KRM-II-73] | 97%
18 | Brc1ccc2c(c1)C(c1ccccn1)=NCc1c(-c3cnco3)ncn1-2 [KRM-II-97] | 93%
19 | Cc1ncoc1-c1ncn2c1CN=C(c1ccccc1F)c1cc(Br)ccc1-2 [KRM-III-59] | 96%
20 | C#Cc1ccc2c(c1)C(c1ccccc1F)=NCc1c(-c3ocnc3C)ncn1-2 [KRM-III-65] | 96%
21 | Cc1ncoc1-c1ncn2c1CN=C(c1ccccc1)c1cc(Br)ccc1-2 [KRM-III-66] | 86%
22 | C#Cc1ccc2c(c1)C(c1ccccn1)=NCc1c(-c3cnco3)ncn1-2 [KRM-III-67] | 71%

Same assay, conditions: rat brain homogenate, 3H-flunitrazepam

Row | Compound | Ki
23 | C#Cc1ccc2c(c1)C(c1ccccc1F)=N[C@H](C)c1c(C(=O)N(C)C)ncn1-2 [GL-II-73] | 506 nM
24 | C#Cc1ccc2c(c1)C(c1ccccc1F)=N[C@H](C)c1c(C(=O)NCC)ncn1-2 [GL-II-74] | 68 nM
25 | C#Cc1ccc2c(c1)C(c1ccccc1F)=N[C@H](C)c1c(C(=O)NC3CC3)ncn1-2 [GL-II-75] | 93 nM
26 | C[C@H]1N=C(c2ccccc2F)c2cc(Br)ccc2-n2cnc(C(=O)O)c21 [GL-II-93] | 86 nM
27 | Brc1ccc2c(c1)C(c1ccccc1)=NCc1c(-c3cnco3)ncn1-2 [KRM-II-73] | 45 nM
28 | Brc1ccc2c(c1)C(c1ccccn1)=NCc1c(-c3cnco3)ncn1-2 [KRM-II-97] | 140 nM
29 | Cc1ncoc1-c1ncn2c1CN=C(c1ccccc1F)c1cc(Br)ccc1-2 [KRM-III-59] | 20 nM
30 | C#Cc1ccc2c(c1)C(c1ccccc1F)=NCc1c(-c3ocnc3C)ncn1-2 [KRM-III-65] | 45 nM
31 | Cc1ncoc1-c1ncn2c1CN=C(c1ccccc1)c1cc(Br)ccc1-2 [KRM-III-66] | 49 nM
32 | C#Cc1ccc2c(c1)C(c1ccccn1)=NCc1c(-c3cnco3)ncn1-2 [KRM-III-67] | 144 nM

Target: T2, KOR (κ opioid receptor) (Homo sapiens, UniProt P41145)
T2 construct: expressed in transfected cells; host or cells: HEK293 (stably transfected)
T2 sequence (P41145 whole entry): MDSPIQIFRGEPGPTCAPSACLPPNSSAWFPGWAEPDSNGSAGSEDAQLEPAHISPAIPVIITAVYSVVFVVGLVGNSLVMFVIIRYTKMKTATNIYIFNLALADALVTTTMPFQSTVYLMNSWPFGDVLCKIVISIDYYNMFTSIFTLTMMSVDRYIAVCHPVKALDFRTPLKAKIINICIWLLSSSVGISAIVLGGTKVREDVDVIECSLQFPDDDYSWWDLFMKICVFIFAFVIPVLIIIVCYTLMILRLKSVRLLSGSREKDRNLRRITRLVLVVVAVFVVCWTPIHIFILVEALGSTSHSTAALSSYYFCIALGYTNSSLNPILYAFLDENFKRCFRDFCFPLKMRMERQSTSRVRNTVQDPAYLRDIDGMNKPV
Assay: KOR radioligand binding ([3H]-U69593, HEK293 cell homogenates)
Details: Percent inhibition at 10,000 nM; [3H]-U69593
Experimental: as §1, §2, §3

Row | Compound | inhibition at 10 µM | KOR %
33 | C#Cc1ccc2c(c1)C(c1ccccc1F)=N[C@H](C)c1c(C(=O)N(C)C)ncn1-2 [GL-II-73] | 58% | 
34 | C#Cc1ccc2c(c1)C(c1ccccc1F)=N[C@H](C)c1c(C(=O)NCC)ncn1-2 [GL-II-74] | 86% | 
35 | C#Cc1ccc2c(c1)C(c1ccccc1F)=N[C@H](C)c1c(C(=O)NC3CC3)ncn1-2 [GL-II-75] | 81% | 
36 | C#Cc1ccc2c(c1)C(c1ccccc1F)=N[C@H](C)c1c(C(=O)N3CCCC3)ncn1-2 [GL-II-76] | 80% | 
37 | C[C@H]1N=C(c2ccccc2F)c2cc(Br)ccc2-n2cnc(C(=O)O)c21 [GL-II-93] | 0% | 
38 | Brc1ccc2c(c1)C(c1ccccc1)=NCc1c(-c3cnco3)ncn1-2 [KRM-II-73] | 83% | 
39 | Brc1ccc2c(c1)C(c1ccccn1)=NCc1c(-c3cnco3)ncn1-2 [KRM-II-97] | 62% | 
40 | Cc1ncoc1-c1ncn2c1CN=C(c1ccccc1F)c1cc(Br)ccc1-2 [KRM-III-59] |  | 73%
41 | C#Cc1ccc2c(c1)C(c1ccccc1F)=NCc1c(-c3ocnc3C)ncn1-2 [KRM-III-65] | 64% | 
42 | Cc1ncoc1-c1ncn2c1CN=C(c1ccccc1)c1cc(Br)ccc1-2 [KRM-III-66] | 67% | 
43 | C#Cc1ccc2c(c1)C(c1ccccn1)=NCc1c(-c3cnco3)ncn1-2 [KRM-III-67] | 48% | 

Same assay, conditions: concentration-dependent, [3H]-U69593; read-out: KOR (Ki)

Row | Compound | Ki
44 | C#Cc1ccc2c(c1)C(c1ccccc1F)=N[C@H](C)c1c(C(=O)N(C)C)ncn1-2 [GL-II-73] | 1190 nM
45 | C#Cc1ccc2c(c1)C(c1ccccc1F)=N[C@H](C)c1c(C(=O)NCC)ncn1-2 [GL-II-74] | 194 nM
46 | C#Cc1ccc2c(c1)C(c1ccccc1F)=N[C@H](C)c1c(C(=O)NC3CC3)ncn1-2 [GL-II-75] | 278 nM
47 | C#Cc1ccc2c(c1)C(c1ccccc1F)=N[C@H](C)c1c(C(=O)N3CCCC3)ncn1-2 [GL-II-76] | 371 nM
48 | Brc1ccc2c(c1)C(c1ccccc1)=NCc1c(-c3cnco3)ncn1-2 [KRM-II-73] | 736 nM
49 | Brc1ccc2c(c1)C(c1ccccn1)=NCc1c(-c3cnco3)ncn1-2 [KRM-II-97] | 1960 nM
50 | Cc1ncoc1-c1ncn2c1CN=C(c1ccccc1F)c1cc(Br)ccc1-2 [KRM-III-59] | 408 nM
51 | C#Cc1ccc2c(c1)C(c1ccccc1F)=NCc1c(-c3ocnc3C)ncn1-2 [KRM-III-65] | 879 nM
52 | Cc1ncoc1-c1ncn2c1CN=C(c1ccccc1)c1cc(Br)ccc1-2 [KRM-III-66] | 756 nM

Same assay, conditions: radioligand binding

Row | Compound | KOR affinity (in words)
53 | C[C@H]1N=C(c2ccccc2F)c2cc(Br)ccc2-n2cnc(C(=O)O)c21 [GL-II-93] | No KOR affinity was observed

Target: T3, DOR (δ opioid receptor) (Homo sapiens, UniProt P41143)
T3 construct: expressed in transfected cells; host or cells: HEK293
T3 sequence (P41143 whole entry): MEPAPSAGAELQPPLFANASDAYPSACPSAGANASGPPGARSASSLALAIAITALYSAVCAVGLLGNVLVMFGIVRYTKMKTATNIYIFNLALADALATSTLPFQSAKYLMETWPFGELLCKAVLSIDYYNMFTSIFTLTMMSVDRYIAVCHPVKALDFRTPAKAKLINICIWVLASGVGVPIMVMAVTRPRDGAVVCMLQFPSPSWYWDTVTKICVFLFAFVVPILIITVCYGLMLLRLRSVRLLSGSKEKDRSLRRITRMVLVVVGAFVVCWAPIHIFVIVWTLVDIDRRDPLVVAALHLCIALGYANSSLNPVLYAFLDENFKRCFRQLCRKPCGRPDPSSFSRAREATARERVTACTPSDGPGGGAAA
Assay: DOR radioligand binding ([3H]-DADLE, HEK293 cell homogenates)
Details: Percent inhibition at 10,000 nM; [3H]-DADLE
Experimental: as §1, §2, §3

Row | Compound | inhibition at 10 µM | DOR %
54 | C#Cc1ccc2c(c1)C(c1ccccc1F)=N[C@H](C)c1c(C(=O)N(C)C)ncn1-2 [GL-II-73] | 0% | 
55 | C#Cc1ccc2c(c1)C(c1ccccc1F)=N[C@H](C)c1c(C(=O)NCC)ncn1-2 [GL-II-74] | 0% | 
56 | C#Cc1ccc2c(c1)C(c1ccccc1F)=N[C@H](C)c1c(C(=O)NC3CC3)ncn1-2 [GL-II-75] | 3% | 
57 | C#Cc1ccc2c(c1)C(c1ccccc1F)=N[C@H](C)c1c(C(=O)N3CCCC3)ncn1-2 [GL-II-76] | 0% | 
58 | C[C@H]1N=C(c2ccccc2F)c2cc(Br)ccc2-n2cnc(C(=O)O)c21 [GL-II-93] | 0% | 
59 | Brc1ccc2c(c1)C(c1ccccc1)=NCc1c(-c3cnco3)ncn1-2 [KRM-II-73] | 32% | 
60 | Brc1ccc2c(c1)C(c1ccccn1)=NCc1c(-c3cnco3)ncn1-2 [KRM-II-97] | 8% | 
61 | Cc1ncoc1-c1ncn2c1CN=C(c1ccccc1F)c1cc(Br)ccc1-2 [KRM-III-59] |  | 11%
62 | C#Cc1ccc2c(c1)C(c1ccccc1F)=NCc1c(-c3ocnc3C)ncn1-2 [KRM-III-65] | 16% | 
63 | Cc1ncoc1-c1ncn2c1CN=C(c1ccccc1)c1cc(Br)ccc1-2 [KRM-III-66] | 11% | 
64 | C#Cc1ccc2c(c1)C(c1ccccn1)=NCc1c(-c3cnco3)ncn1-2 [KRM-III-67] | 3% | 

Reference: patent US20240279232A1, “USE OF SUBSTITUTED 5-(4-METHYL-6-PHENYL-4H-BENZO[F]IMIDAZO[1,5-A][1,4] DIAZEPIN-3-YL)-1,2,4-O[…] THE TREATMENT OF INFLAMMATORY CONDITIONS” (priority 2021, published 2024)
